In brackets after ≈: the same amount, converted by molar mass. Where two headings read alike, the source gives them in different places.
How the values were obtained:
[1] = molecular target: T1, rA1 adenosine receptor (Rattus norvegicus, UniProt P25099); assay: Binding affinity at rA1 adenosine receptor
T1 sequence (P25099 1-326): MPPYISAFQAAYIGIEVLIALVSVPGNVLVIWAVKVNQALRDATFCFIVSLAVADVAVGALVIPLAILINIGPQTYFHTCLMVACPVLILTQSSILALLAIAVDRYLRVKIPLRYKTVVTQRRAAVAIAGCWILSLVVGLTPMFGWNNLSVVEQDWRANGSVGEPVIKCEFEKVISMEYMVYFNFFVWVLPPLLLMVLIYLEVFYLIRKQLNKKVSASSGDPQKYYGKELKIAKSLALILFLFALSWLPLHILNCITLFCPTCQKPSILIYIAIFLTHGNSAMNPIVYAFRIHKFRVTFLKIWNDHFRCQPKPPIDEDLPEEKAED

[2] = molecular target: rA2A adenosine receptor (Rattus norvegicus, UniProt P30543); assay: Binding affinity at rA2A adenosine receptor
[3] = system: human melanoma A375 cell line; assay: MTT growth inhibitory assay, A375; format: cell-based
Description: (§1) One of the growth inhibitory assays is the MTT assay. Cells (1000-1500 cells/well) are seeded in a 96-well micro culture plate in a total volume of 100 μl/well. After overnight incubation in a humidified incubator at 37° C. with 5% CO2-95% air, chemotherapeutic drug solutions diluted with culture medium at various concentrations are added in the amount of 100 μl to each well. The plates are placed in a humidified incubator at 37° C. with 5% CO2-95% air for 7-10 days. The plates are then centrifuged briefly and 100 μl of the growth medium is removed. Cell cultures are incubated with 50 μl of MTT [3-(4,5-dimethylthiazol-2-yl)-2,5-diphenyl-tetrazolium bromide] reagent (1 mg/ml in Dulbecco's phosphate-buffered saline) for 4 hr at 37° C. The resultant purple formazan precipitate is solubilized with 200 μl of 0.04 N HCl in isopropanol. Absorbance is measured at a wavelength of 595 nm and at a reference wavelength of 655 nm using a Bio-Rad Model 3550 Microplate Reader. Preferably, all tests are run in duplicate for each dose level.
(§2) The EZED50 computer program estimates the concentration of agent that inhibits cell growth by 50% as compared to the control cells. This is termed the IC50 and is determined by curve fitting test data using the following four logistic equation. [formula]
(§3) Inhibitory assay testing is also used to determine enhanced therapeutic effects from combining A3 receptor antagonists with other tumor inhibiting agents. The inhibitory cell growth assays are run with and without selected concentrations of A3 receptor antagonists. An enhanced therapeutic effect is present when the IC50 of the tumor inhibiting agent is lower with the A3 receptor antagonist.
(§4) Quantitatively, the enhancement factor (EF) is calculated by dividing the IC50 value of the tumor inhibiting agent for a tumor cell line by the IC50 value of the agent with A3 receptor antagonist for the same cell line: [formula]

[4] = system: human colon carcinoma HT29 cell line; assay: MTT growth inhibitory assay, HT29; format: cell-based
[5] = system: human pancreatic cancer Panc-1; assay: MTT growth inhibitory assay, Panc-1; format: cell-based
[6] = system: human lung carcinoma SKMES; assay: MTT growth inhibitory assay, SKMES; format: cell-based
Description: as §1, §2, §3, §4

[7] = system: A375 cells; assay: Flow cytometry (PI) G2/M accumulation and sub-G1 apoptosis, A375; format: cell-based, human; settings: A375, vindesine 1 nM, G2/M accumulation dose response curve, read-out: SEC50 (dose inducing 50% of the enhancing activity to vindesine)
Description: A375 and NCTC2544 adherent cells were trypsinized, mixed with floating cells, washed with PBS and permeabilised in 70% (vol/vol) ethanol/PBS solution at 4° C. for at least 24 hours. Jurkat, HeL023 and PBMC cells were centrifuged for 10 minutes at 1000×g. The cell pellet was then resuspended and permeabilised in 70% (vol/vol) ethanol/PBS solution at 4° C. for at least 24 hours. The cells were washed with PBS and the DNA was stained with a PBS solution, containing 20 μg/ml of propidium iodide and 100 μg/ml of RNAse, at room temperature for 30 minutes. Cells were analysed by FACScan (Becton-Dickinson) and the content of DNA was evaluated by the Cell-LISYS program (Becton-Dickinson). Cell distribution among cell cycle phases and apoptotic cells was evaluated as previously described (Secchiero et al., 2001). Briefly, the cell cycle distribution is shown as the percentage of cells containing 2n (G1 phase), 4n (G2 and M phases), 4n>x>2n. DNA amount (S phase) judged by propidium iodide staining. The apoptotic population is the percentage of cells with DNA content lower than 2n.
Cell proliferation and apoptosis are quantified by flow cytometer analysis after propidium-iodide (PI) DNA staining.

[8] = molecular target: T2, P-gp drug efflux activity in HeL023 cells (Homo sapiens, UniProt P08183); assay: Rhodamine 123 efflux assay, HeL023 cells; format: cell-based; settings: Rh123 efflux, concentrations of Table 11 (MRE3008F20 10 μM)
T2 construct: nearly all (100±1%) the cells expressing high level of functional P-gp; endogenous in cells; host or cells: HeL023 human erythroleukemia cells
Description: 5×10^5 cells from each subline were loaded with 50 ng/ml of rhodamine 123 for 30 minutes at 37° C. in medium. The cells were washed and resuspended in dye-staining agent free medium for 3 hours at 37° C. to allow rhodamine 123 efflux. The cells were then washed twice and the fluorescence of intracellular rhodamine 123 were analysed with Flow cytometer (residual fluorescence FRES). The fluorescence was compared with loaded cells maintained at 4° C. to prevent drug export (maximal fluorescence FMAX). […] Cells from each subline that were not being exposed to rhodamine 123 were used as negative controls.
Rhodamine 123 (Rh123) retention, a P-gp functional assay, was studied in all cell lines. This assay was performed by incubating cells with Rh123 and determining Rh123 accumulation by measuring its fluorescence. The maximum load of Rh123 (FMAX) was quantified at the end of treatment harvesting the cells and storing them at 4° C. to prevent any active Rh123 efflux . The P-gp drug efflux was allowed incubating Rh123-loaded cells in fresh new medium Rh123-free for 3 hours at 37° C. After this incubation, residual fluorescence (FRES) was measured and compared to FMAX.

[9] = molecular target: T3, human A3 adenosine receptor (Homo sapiens, UniProt P0DMS8); settings: read-out: Ki (binding affinity at human A3 adenosine receptor); A375 cells
T3 sequence (P0DMS8 1-318): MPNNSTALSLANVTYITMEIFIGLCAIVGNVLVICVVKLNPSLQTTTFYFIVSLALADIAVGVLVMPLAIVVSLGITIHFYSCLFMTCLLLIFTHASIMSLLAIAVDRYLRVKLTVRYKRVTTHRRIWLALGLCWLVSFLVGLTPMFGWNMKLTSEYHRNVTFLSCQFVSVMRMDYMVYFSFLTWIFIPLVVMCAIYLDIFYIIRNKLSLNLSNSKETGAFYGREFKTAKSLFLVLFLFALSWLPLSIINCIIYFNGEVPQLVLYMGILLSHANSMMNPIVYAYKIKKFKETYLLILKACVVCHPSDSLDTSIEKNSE

[10] = Panc-1, A3 antagonist 0.5 μg/ml

T2 sequence (P08183 whole entry): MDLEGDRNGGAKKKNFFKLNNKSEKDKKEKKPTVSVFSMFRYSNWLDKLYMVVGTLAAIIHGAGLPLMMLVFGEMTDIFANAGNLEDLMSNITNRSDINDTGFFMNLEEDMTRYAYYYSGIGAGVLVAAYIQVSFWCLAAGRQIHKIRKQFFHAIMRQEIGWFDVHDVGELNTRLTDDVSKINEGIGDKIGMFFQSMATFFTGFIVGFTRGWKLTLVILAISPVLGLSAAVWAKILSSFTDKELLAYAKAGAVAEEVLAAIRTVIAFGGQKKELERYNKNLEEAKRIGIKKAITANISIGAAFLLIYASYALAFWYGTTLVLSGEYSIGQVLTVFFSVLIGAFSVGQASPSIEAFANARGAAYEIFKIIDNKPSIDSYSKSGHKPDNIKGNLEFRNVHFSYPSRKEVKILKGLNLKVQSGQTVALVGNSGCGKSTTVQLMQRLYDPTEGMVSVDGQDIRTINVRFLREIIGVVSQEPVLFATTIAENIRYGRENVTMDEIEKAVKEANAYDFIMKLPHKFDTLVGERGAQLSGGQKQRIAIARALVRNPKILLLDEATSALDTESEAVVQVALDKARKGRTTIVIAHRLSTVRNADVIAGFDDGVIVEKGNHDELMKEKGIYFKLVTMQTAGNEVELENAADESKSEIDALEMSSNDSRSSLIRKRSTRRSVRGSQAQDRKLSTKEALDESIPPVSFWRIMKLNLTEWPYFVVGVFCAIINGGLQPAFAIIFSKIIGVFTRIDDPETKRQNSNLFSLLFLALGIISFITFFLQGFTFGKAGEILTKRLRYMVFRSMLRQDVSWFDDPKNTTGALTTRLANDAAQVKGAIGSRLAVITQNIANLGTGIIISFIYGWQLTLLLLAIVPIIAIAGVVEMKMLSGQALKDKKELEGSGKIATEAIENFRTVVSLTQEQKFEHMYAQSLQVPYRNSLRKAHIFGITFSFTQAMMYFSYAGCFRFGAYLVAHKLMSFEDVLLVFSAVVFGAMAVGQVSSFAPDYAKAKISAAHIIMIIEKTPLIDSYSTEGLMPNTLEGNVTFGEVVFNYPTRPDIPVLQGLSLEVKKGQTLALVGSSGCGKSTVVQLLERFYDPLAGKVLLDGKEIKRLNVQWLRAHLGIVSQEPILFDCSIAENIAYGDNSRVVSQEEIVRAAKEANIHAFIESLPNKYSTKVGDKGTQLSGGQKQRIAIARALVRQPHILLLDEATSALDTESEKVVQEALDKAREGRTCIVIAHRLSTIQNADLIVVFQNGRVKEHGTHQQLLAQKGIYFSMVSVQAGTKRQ
rA2A adenosine receptor, sequence (P30543 whole entry): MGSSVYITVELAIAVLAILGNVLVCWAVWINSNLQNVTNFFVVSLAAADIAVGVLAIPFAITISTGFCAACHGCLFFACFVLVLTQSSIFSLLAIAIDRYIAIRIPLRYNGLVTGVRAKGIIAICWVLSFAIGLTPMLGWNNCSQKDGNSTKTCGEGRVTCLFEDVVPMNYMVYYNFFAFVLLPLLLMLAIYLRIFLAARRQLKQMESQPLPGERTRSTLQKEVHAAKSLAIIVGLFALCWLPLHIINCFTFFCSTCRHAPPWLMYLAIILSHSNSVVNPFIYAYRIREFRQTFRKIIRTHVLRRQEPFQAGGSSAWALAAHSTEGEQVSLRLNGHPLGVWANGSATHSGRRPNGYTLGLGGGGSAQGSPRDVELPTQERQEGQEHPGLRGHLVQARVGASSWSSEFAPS

CCN(CC)c1ccc(NC(=O)Nc2nc3nn(C)cc3c3nc(-c4ccco4)nn23)cc1 [IL-10, N-1-(4-diethylamino-phenyl)-N′-5-[8-methyl-2-(2-furyl)-pyrazolo[4 ,3-e]1,2,4-triazolo[1,5-c]pyrimidine]-urea]
Ki [1]: 0.58 µM | Ki [2]: 0.523 µM | Enhancement Factor for docetaxel ([3]; A375, A3 antagonist 0.5 μg/ml): 8.4 | Enhancement Factor for paclitaxel ([3]; A375, A3 antagonist 0.5 μg/ml): 3.7 | Enhancement Factor for docetaxel ([3]; A375, A3 antagonist 5 μg/ml): 2.9 | Enhancement Factor for paclitaxel ([3]; A375, A3 antagonist 5 μg/ml, paclitaxel 0.0001-0.05 μg/ml): 8.8 | Enhancement Factor for paclitaxel ([3]; A375, A3 antagonist 5 μg/ml, paclitaxel 0.0002-0.1 μg/ml): 9.2 | IC50 ([3]; Homo sapiens, A-375, Human Melanoma A375, read-out: IC50 growth inhibition, agent used separately): 11.9 ± 0.4 µg/mL (≈ 26.7 µM) | inhibition at 5 µg/mL ([3]; Homo sapiens, A-375, A375, 5 μg/ml, read-out: growth inhibition in the presence of A3 antagonist alone): 30 to 45% | Enhancement Factor for docetaxel ([4]; HT29, A3 antagonist 0.5 μg/ml): 5.5 | Enhancement Factor for doxorubicin ([4]; HT29, A3 antagonist 0.5 μg/ml): 1.5 | Enhancement Factor for irinotecan HCl ([4]; HT29, A3 antagonist 0.5 μg/ml): 1.2 | Enhancement Factor for paclitaxel ([4]; HT29, A3 antagonist 0.5 μg/ml): 2.5 | IC50 ([4]; HT-29, Human Colon Carcinoma HT29, read-out: IC50 growth inhibition, agent used separately): 10 ± 0.7 µg/mL (≈ 22.4 µM) | IC50 ([5]; Human Pancreatic Cancer Panc-1, read-out: IC50 growth inhibition, agent used separately): 3.9 ± 3.3 µg/mL (≈ 8.75 µM) | Enhancement Factor for docetaxel [5, 10]: 1.4 | Enhancement Factor for paclitaxel [5, 10]: 1.7 | IC50 ([6]; Human Lung Carcinoma SKMES, read-out: IC50 growth inhibition, agent used separately): 5.9 ± 0.3 µg/mL (≈ 13.2 µM) | Enhancement Factor for docetaxel ([6]; SKMES, A3 antagonist 0.5 μg/ml): 2.8 | Enhancement Factor for irinotecan HCL ([6]; SKMES, A3 antagonist 0.5 μg/ml): 1.7 | Enhancement Factor for paclitaxel ([6]; SKMES, A3 antagonist 0.5 μg/ml): 2.8 | Enhancement Factor for vinblastine ([6]; SKMES, A3 antagonist 0.5 μg/ml): 1.4 | EC50 ([7]; Homo sapiens, A-375): 0.97 ± 0.1 µM | inhibition of P-gp activity (in words) [8]: strong inhibitors of P-gp activity

CCCCn1cc2c(nc(NC(=O)Nc3ccccc3)n3nc(-c4ccco4)nc23)n1 [MRE 3062F20, 5-N-(4-phenyl-carbamoyl)amino-8-butyl-2 (2furyl)-pyrazolo-[4,3e]-1,2,4triazolo[1,5-c]pyrimidine]
EC50 [7]: 0.43 ± 0.04 µM | inhibition of P-gp activity (in words) [8]: strong inhibitors of P-gp activity | Ki [9]: 0.0023 ± 0.0002 µM

Reference: patent publication US20040067932A1 (priority 2002, published 2004)
